Measurements: patent US20250171459A1, “2-METHYL-4',5'-DIHYDROSPIRO[PIPERIDINE-4,7'-THIENO[2,3-C]PYRAN] DERIVATIVES AS INHIBITORS OF APOL1 AND METHODS OF USING SAME” (Vertex Pharmaceuticals Incorporated, priority 2022, published 2025)

Target: T1, APOL1 (Homo sapiens, UniProt O14791)
T1 sequence (O14791 1-398 S342G/I384M): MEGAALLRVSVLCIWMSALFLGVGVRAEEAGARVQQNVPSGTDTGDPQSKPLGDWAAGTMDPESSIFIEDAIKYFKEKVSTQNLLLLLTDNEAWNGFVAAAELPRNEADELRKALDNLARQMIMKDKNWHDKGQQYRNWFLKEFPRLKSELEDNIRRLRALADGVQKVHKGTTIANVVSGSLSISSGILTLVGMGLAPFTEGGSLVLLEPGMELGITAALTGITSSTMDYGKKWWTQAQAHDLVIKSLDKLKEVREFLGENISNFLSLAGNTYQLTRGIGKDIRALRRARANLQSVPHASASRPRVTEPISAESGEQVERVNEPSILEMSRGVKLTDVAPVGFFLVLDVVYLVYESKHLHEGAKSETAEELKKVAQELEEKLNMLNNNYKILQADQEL
Experiment: MultiTox-Fluor Multiplex Cytotoxicity Assay in tet-inducible APOL1 T-REx-HEK293 cells (cell rescue, ratio of dead to live cells)
Assay type: cell-based
Settings: tet-inducible transgenic APOL1 T-REx-HEK293 cell lines, 50 ng/mL tet, 24 hours; read-out: IP50 (i.e., IC50 for cell proliferation)
In short: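 T-REx-HEK293 cells with tet-inducible APOL1 were treated with compound (10 μM top, 10-point 3-fold dilution, duplicate) plus 50 ng/mL tetracycline for 24 h at 37° C, in DMEM with 2% tet-free FBS. MultiTox-Fluor protease signals gave a dead/live ratio, normalized to no tet (100% viability) and tet alone (0%).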

| SMILES | IC50 |
| --- | --- |
| CCc1cc2c(s1)CCO[C@@]21CCN(Cc2cn(C3CC(O)C3)nn2)[C@@H](C)C1 (stereo partly drawn) [Compound 152] | 100 to 500 nM |
| CCc1cc2c(s1)CCO[C@@]21CCN(Cc2cn(CCCO)nn2)[C@@H](C)C1 [Compound 153] | < 100 nM |
| CCc1cc2c(s1)CCO[C@@]21CCN(Cc2cn(CCO)nn2)[C@@H](C)C1 [Compound 154] | < 100 nM |
| CCc1cc2c(s1)CCO[C@@]21CCN(Cc2cn(CC3(S(C)(=O)=O)CCOCC3)nn2)[C@@H](C)C1 [Compound 155] | < 100 nM |
| CCc1cc2c(s1)CCO[C@@]21CCN(Cc2cn(CC3(S(C)(=O)=O)CC3)nn2)[C@@H](C)C1 [Compound 156] | < 100 nM |
| CCc1cc2c(s1)CCO[C@@]21CCN(Cc2cn(CC3(S(C)(=O)=O)CCCC3)nn2)[C@@H](C)C1 [Compound 157] | < 100 nM |
| CCc1cc2c(s1)CCO[C@@]21CCN(Cc2cn(CC3CCCCS3(=O)=O)nn2)[C@@H](C)C1 (stereo partly drawn) [Compound 158] | < 100 nM |
| CCc1cc2c(s1)CCO[C@@]21CCN(Cc2cn(CCS(=O)(=O)C(C)(C)C)nn2)[C@@H](C)C1 [Compound 159] | 100 to 500 nM |
| CCc1cc2c(s1)CCO[C@@]21CCN(Cc2cn(CCS(=O)(=O)C(C)C)nn2)[C@@H](C)C1 [Compound 160] | < 100 nM |
| CCc1cc2c(s1)CCO[C@@]21CCN(Cc2cn(CC3CCCS3(=O)=O)nn2)[C@@H](C)C1 (stereo partly drawn) [Compound 161] | < 100 nM |
| CCc1cc2c(s1)CCO[C@@]21CCN(Cc2cn(C3CN(S(C)(=O)=O)C3)nn2)[C@@H](C)C1 [Compound 162] | < 100 nM |
| CCc1cc2c(s1)CCO[C@@]21CCN(Cc2cn(C(C)c3nncn3CCOC)nn2)[C@@H](C)C1 (stereo partly drawn) [Compound 163] | 500 to 1000 nM |
| CCc1cc2c(s1)CCO[C@@]21CCN(Cc2cn(C(C)(C)C(=O)N3CCOCC3)nn2)[C@@H](C)C1 [Compound 164] | 500 to 1000 nM |
| CCc1cc2c(s1)CCO[C@@]21CCN(Cc2cn(Cc3nc(C)no3)nn2)[C@@H](C)C1 [Compound 165] | < 100 nM |
| CCc1cc2c(s1)CCO[C@@]21CCN(Cc2cn(C3C[C@@H](CO)NC3=O)nn2)[C@@H](C)C1 (stereo partly drawn) [Compound 166] | 500 to 1000 nM |
| CCc1cc2c(s1)CCO[C@@]21CCN(Cc2cn(Cc3cnn(C)n3)nn2)[C@@H](C)C1 [Compound 167] | < 100 nM |
| CCc1cc2c(s1)CCO[C@@]21CCN(Cc2cn(C(C)(C)CS(C)(=O)=O)nn2)[C@@H](C)C1 [Compound 168] | 500 to 1000 nM |
| CCc1cc2c(s1)CCO[C@@]21CCN(Cc2cn(CC(O)(CC)CCCO)nn2)[C@@H](C)C1 (stereo partly drawn) [Compound 169] | < 100 nM |
| CCc1cc2c(s1)CCO[C@@]21CCN(Cc2cn(C3(CO)CCOC3)nn2)[C@@H](C)C1 (stereo partly drawn) [Compound 170] | 500 to 1000 nM |
| CCc1cc2c(s1)CCO[C@@]21CCN(Cc2cn(CC3CN(C(C)=O)CCO3)nn2)[C@@H](C)C1 (stereo partly drawn) [Compound 171] | 100 to 500 nM |

| SMILES | IC50 |
| --- | --- |
| CCc1cc2c(s1)CCO[C@@]21CCN(Cc2cn(C(CC)C(=O)N3CCOCC3)nn2)[C@@H](C)C1 (stereo partly drawn) [Compound 172] | 100 to 500 nM |
| CCc1cc2c(s1)CCO[C@@]21CCN(Cc2cn(CCN3C(=O)CCC3=O)nn2)[C@@H](C)C1 [Compound 173] | 100 to 500 nM |
| CCc1cc2c(s1)CCO[C@@]21CCN(Cc2cn(CC3CN(C)C(=O)CO3)nn2)[C@@H](C)C1 (stereo partly drawn) [Compound 174] | 100 to 500 nM |
| CCc1cc2c(s1)CCO[C@@]21CCN(Cc2cn(CCN3CCS(=O)(=O)CC3)nn2)[C@@H](C)C1 [Compound 175] | 500 to 1000 nM |
| CCc1cc2c(s1)CCO[C@@]21CCN(Cc2cn(Cc3nnc(C)o3)nn2)[C@@H](C)C1 [Compound 176] | 100 to 500 nM |
| CCc1cc2c(s1)CCO[C@@]21CCN(Cc2cn(C(C)(CO)CO)nn2)[C@@H](C)C1 [Compound 177] | 500 to 1000 nM |
| CCc1cc2c(s1)CCO[C@@]21CCN(Cc2cn(CCOCCO)nn2)[C@@H](C)C1 [Compound 178] | 100 to 500 nM |
| CCc1cc2c(s1)CCO[C@@]21CCN(Cc2cn(Cc3cn(C)nn3)nn2)[C@@H](C)C1 [Compound 179] | < 100 nM |
| CCc1cc2c(s1)CCO[C@@]21CCN(Cc2cn(C3CC(=O)N(CCOC)C3)nn2)[C@@H](C)C1 (stereo partly drawn) [Compound 180] | < 100 nM |
| CCc1cc2c(s1)CCO[C@@]21CCN(Cc2cn(CC(N)=O)nn2)[C@@H](C)C1 [Compound 181] | 100 to 500 nM |
| CCc1cc2c(s1)CCO[C@@]21CCN(Cc2cn(CCN(CCO)CCO)nn2)[C@@H](C)C1 [Compound 182] | 100 to 500 nM |
| CCc1cc2c(s1)CCO[C@@]21CCN(Cc2cn(CCCS(C)(=O)=O)nn2)[C@@H](C)C1 [Compound 183] | < 100 nM |
| CCc1cc2c(s1)CCO[C@@]21CCN(Cc2cn(Cc3nc(COC)no3)nn2)[C@@H](C)C1 [Compound 184] | < 100 nM |
| CCc1cc2c(s1)CCO[C@@]21CCN(Cc2cn(CCOc3nonc3C)nn2)[C@@H](C)C1 [Compound 185] | < 100 nM |
| CCc1cc2c(s1)CCO[C@@]21CCN(Cc2cn(C(C)c3nnc4n3CCC4)nn2)[C@@H](C)C1 (stereo partly drawn) [Compound 186] | 100 to 500 nM |
| CCc1cc2c(s1)CCO[C@@]21CCN(Cc2cn(CC3CCCN(S(C)(=O)=O)C3)nn2)[C@@H](C)C1 (stereo partly drawn) [Compound 187] | 100 to 500 nM |
| CCc1cc2c(s1)CCO[C@@]21CCN(Cc2cn(CC(O)c3c(C)nn(C)c3C)nn2)[C@@H](C)C1 (stereo partly drawn) [Compound 189] | < 100 nM |
| CCc1cc2c(s1)CCO[C@@]21CCN(Cc2cn(CC3(O)CCOCC3)nn2)[C@@H](C)C1 [Compound 190] | < 100 nM |
| CCc1cc2c(s1)CCO[C@@]21CCN(Cc2cn(CC(O)CN3CCOCC3)nn2)[C@@H](C)C1 (stereo partly drawn) [Compound 191] | < 100 nM |
| CCc1cc2c(s1)CCO[C@@]21CCN(Cc2cn(C(C)(C)CCS(C)(=O)=O)nn2)[C@@H](C)C1 [Compound 192] | 500 to 1000 nM |

| SMILES | IC50 |
| --- | --- |
| CCc1cc2c(s1)CCO[C@@]21CCN(Cc2cn(C(CO)[C@H](C)O)nn2)[C@@H](C)C1 (stereo partly drawn) [Compound 193] | 500 to 1000 nM |
| CCc1cc2c(s1)CCO[C@@]21CCN(Cc2cn(CCN3CCCC3=O)nn2)[C@@H](C)C1 [Compound 194] | 500 to 1000 nM |
| CCc1cc2c(s1)CCO[C@@]21CCN(Cc2cn(CCOCCOCCO)nn2)[C@@H](C)C1 [Compound 195] | 100 to 500 nM |
| CCc1cc2c(s1)CCO[C@@]21CCN(Cc2cn(C3C[C@H](CO)NC3=O)nn2)[C@@H](C)C1 (stereo partly drawn) [Compound 196] | 100 to 500 nM |
| CCc1cc2c(s1)CCO[C@@]21CCN(Cc2cn(CCOCCOCCOCCO)nn2)[C@@H](C)C1 [Compound 197] | 100 to 500 nM |
| CCc1cc2c(s1)CCO[C@@]21CCN(Cc2cnc(Cl)nc2)[C@@H](C)C1 [Compound 198, (2′S,4R)-1′-[(2-chloropyrimidin-5-yl)methyl]-2-ethyl-2′-methyl-spiro[6,7-dihydrothieno[3,2-c]pyran-4,4′-piperidine]] | 100 to 500 nM |
| CCc1cc2c(s1)CCO[C@@]21CCN(Cc2ccc(Cl)nc2)[C@@H](C)C1 [Compound 199, (2′S,4R)-1′-[(6-chloro-3-pyridyl)methyl]-2-ethyl-2′-methyl-spiro[6,7-dihydrothieno[3,2-c]pyran-4,4′-piperidine]] | < 100 nM |
| CCc1cc2c(s1)CCO[C@@]21CCN(Cc2cnc(N[C@@H]3C=C[C@H](CO)C3)nc2)[C@@H](C)C1 [Compound 200, [(1R,4S)-4-[[5-[[(2′S,4R)-2-ethyl-2′-methyl-spiro[6,7-dihydrothieno[3,2-c]pyran-4,4′-piperidine]-1′-yl]methyl]pyrimidin-2-yl]amino]cyclopent-2-en-1-yl]methanol] | < 100 nM |
| CCc1cc2c(s1)CCO[C@@]21CCN(Cc2cnc(NC(C)(C)CO)nc2)[C@@H](C)C1 [Compound 201, 2-[[5-[[(2′S,4R)-2-ethyl-2′-methyl-spiro[6,7-dihydrothieno[3,2-c]pyran-4,4′-piperidine]-1′-yl]methyl]pyrimidin-2-yl]amino]-2-methyl-propan-1-ol] | < 100 nM |
| CCc1cc2c(s1)CCO[C@@]21CCN(Cc2ccc(N[C@@H]3C=C[C@H](CO)C3)nc2)[C@@H](C)C1 [Compound 202] | < 100 nM |
| CCc1cc2c(s1)CCO[C@@]21CCN(Cc2cnc(N[C@H]3COC[C@@H]3O)nc2)[C@@H](C)C1 [Compound 203] | < 100 nM |
| CCc1cc2c(s1)CCO[C@@]21CCN(Cc2cnc(N[C@H]3CC[C@H](O)C3)nc2)[C@@H](C)C1 [Compound 204] | < 100 nM |
| CCc1cc2c(s1)CCO[C@@]21CCN(Cc2ccc(N[C@H]3CC[C@H](O)C3)nc2)[C@@H](C)C1 [Compound 205] | < 100 nM |
| CCc1cc2c(s1)CCO[C@@]21CCN(Cc2cnc(NCc3ccc(O)cn3)nc2)[C@@H](C)C1 [Compound 206] | < 100 nM |
| CCc1cc2c(s1)CCO[C@@]21CCN(Cc2cnc(N[C@H]3CCNC3=O)nc2)[C@@H](C)C1 [Compound 207] | < 100 nM |
| CCc1cc2c(s1)CCO[C@@]21CCN(Cc2cnc(OCC(C)(C)N)nc2)[C@@H](C)C1 [Compound 208] | < 100 nM |
| CCc1cc2c(s1)CCO[C@@]21CCN(Cc2cnc(N[C@H]3CCCC[C@@H]3O)nc2)[C@@H](C)C1 [Compound 209] | < 100 nM |
| CCc1cc2c(s1)CCO[C@@]21CCN(Cc2cnc(NC34CCC(CO)(C3)C4)nc2)[C@@H](C)C1 [Compound 210] | < 100 nM |
| CCc1cc2c(s1)CCO[C@@]21CCN(Cc2ccc(N[C@@H](C)C(C)(C)O)nc2)[C@@H](C)C1 [Compound 211] | < 100 nM |
| CCc1cc2c(s1)CCO[C@@]21CCN(Cc2ccc(N[C@H]3COC[C@@H]3O)nc2)[C@@H](C)C1 [Compound 212] | < 100 nM |
